The values below come from patent US11197914B2, “GLP-1R/GCGR dual target agonist polypeptide for treatment of fatty liver diseases, hyperlipemia and arteriosclerosis” (Shenzhen Turier Biotech Co., Ltd., priority 2016, dated 2021).

*1 amine or outer side, *2 acyl side, *3 side chain or, on linkers, in order; H or OH if unused. Primed or numbered codes have the meaning given here. Where no end group is shown, it is not given here. Side-chain parts run from the residue outwards. [ ]: non-standard residue; d: D form. The star is where a group is joined. γGlu = O=C(O)[C@H](CCC(=O)[*:2])N[*:1]; Palmitoyl = CCCCCCCCCCCCCCCC(=O)*; PEG2′ = not defined here

Experiment [1] has as its system CCl4-induced hepatic fibrosis mice. Nature of the experiment: CCl4-induced hepatic fibrosis in mice. The conditions noted are these: 500 μg/kg subcutaneous once every two days, 6 weeks. The class given is in vivo, C57 mice. On the procedure:
6-8-week-old C57 mice with body weight of 20-25 g at SPF level were provided by Guangdong Medical Laboratory Animal Center and tested by SPF level laboratory in Laboratory Animal Center of Guangdong Pharmaceutical University. C57 mice were divided into control group, hepatic fibrosis model group and treatment group, 8 mice for each group. A mouse was subject to intraperitoneal injection with 20% CCl4 (2 mL/kg, diluted with olive oil at ratio of 1:4) twice a week for continuous 6 weeks to form a stable hepatic fibrosis animal model. For the treatment group, one of subcutaneous injection compounds 2, 6 and 22 with 500 μg/kg of body weight was used respectively once every two days for continuous 6 weeks. Olive oil with same volume and same frequency was administered for the control group and stopped until the end of 6-week experiment. After the end of the experiment, the mice were subject to anesthesia to collect serum and liver specimens. The liver was fixed with 10% formalin and embedded with paraffin.

For experiment [2], the system named is high fat diet-induced hyperlipidemic mice. The experiment can be described thus: High fat diet-induced NAFLD and hyperlipemia in mice. The conditions noted are these: 500 μg/kg subcutaneous once every two days, 12 weeks. The class given is in vivo, C57 mice. On the procedure:
6-8-week-old C57 mice with body weight of 20-25 g at SPF level were provided by Guangdong Medical Laboratory Animal Center and tested by SPF level laboratory in Laboratory Animal Center of Guangdong Pharmaceutical University. C57 mice were divided into control group, hepatic fibrosis model group and treatment group, 8 mice for each group. The mice were fed with high fat diet (HFD) for 12 weeks. For the treatment group, subcutaneous injection compounds 2 and 6 with 500 μg/kg of body weight were used once every two days for continuous 12 weeks. PBS with same volume and same frequency was administered for the control group. After the end of the experiment, the mice were subject to anesthesia to collect serum and liver specimens.

Experiment [3] deals with Hepatic stellate cell strain LX-2. The experiment can be described thus: In vitro inhibition of hepatic fibrosis: expression of LX-2 cell activation marker α-SMA (Western Blot, α-SMA/β-actin). The following applies: LX-2 cells. It is filed as cell-based, human. The method, then:
Hepatic stellate cell strain LX-2 was selected to study and observe the effect of different doses of test substances on the expression of LX-2 cell activation marker […]. Hepatic stellate cell LX-2 was laid on 35 mm cell culture plate, cultured with DMEM (high glucose)+10% FBS+1% double-antibody culture medium (Thermo Fisher), placed overnight when the cells grew to 70% convergence at 37° C. and under the condition of 5% CO2, and treated with the above compounds 1-37 (dissolved in PBS) for 48 hours the next day morning to extract cell protein, carry out Western Blot, and take β-actin as internal reference and analyze the expression quantities of α-SMA and β-actin by a gray level of Image J 1.50i. PBS with the same volume as that in experimental group was added in negative control. […] The integrating gray level of α-SMA/β-actin in the negative control group was 100% to analyze the in vitro inhibition activity of hepatic fibrosis of tested polypeptide.
On the technique in general: Immunoblotting shows a protein as a band on a membrane.

Experiment [4] concerns db/db diabetic obese mice. It is filed as in vivo. The conditions noted are these: 10 μg/mouse subcutaneous once every two days, 18 days. On the procedure:
12-week-old db/db diabetic obese mice were randomly grouped into 3 groups (12-hour fasting before grouping), 6 mice in each group. Mice in each group were injected subcutaneously at a dose of 10 μg/mouse, and mice in the blank group were injected subcutaneously with PBS. The volume for each group was 0.25 ml/mouse once every two days (at 48-hour interval) for 18 days. At the end of the experiment, blood was taken from the orbital venous plexus of each mouse to measure glycosylated hemoglobin (HbAlc), insulin (INS), triglyceride (TG) and total cholesterol (TC) levels in the serum of the mouse. The liver, pancreas, heart, lungs and spleen were taken for HE pathological staining at the same time. GraphPad Prismversion6 software was used for statistical analysis.

For “His-(D-Ser)-Gln-Gly-Thr-Phe-Thr-Ser-Asp-Tyr-Ser-Lys-Tyr-Leu-Asp-Lys(PEG2-PEG2-γGlu-CO(CH2)14CH3)-Arg-Arg-Ala-Gln-Asp-Phe-Val-Gln-Trp-Leu-Met-Asn-Thr-Gly-Gly-Pro-Ser-Ser-Gly-Ala-Pro-Pro-Pro-Ser-NH2 (H[dS]QGTFTSDYSKYLDK([PEG2′-PEG2′-γGlu-Palmitoyl])RRAQDFVQWLMNTGGPSSGAPPPS-NH2) [Compound 6]”, in experiment [1], the “ALT level of serum” value is listed as “obviously reduce”; the “CCl4-induced liver injury and fibrosis stage (HE, Sirius Red)” value was “obviously improved”. In experiment [2], the “Fatty liver complicated by hepatic fibrosis (Sirius red)” value is listed as “effectively inhibit fatty liver complicated by hepatic fibrosis”, the “HFD-induced increase of body weight” value is reported as “effectively inhibit”, the “Hepatic triglyceride (TG) content” value is “effectively reduce” and the “Liver lipid deposition (Oil Red O)” value is given as “effectively reduce”. In addition, in experiment [2], the “Liver lipoid degeneration and non-alcoholic steatohepatitis (liver tissue biopsy)” value was “inhibit liver lipoid degeneration and non-alcoholic steatohepatitis”; the “Treatment effect on liver lipid deposition and hepatic TG compared with Liraglutide” value is reported as “obviously better than Liraglutide”. For the same substance, the “Control of body weight, comparison between treatments” value in experiment [2] (compared with liraglutide) is on record as “most obviously”. Besides, the “Inhibition of LX-2 cell activation marker α-SMA (in words, from Table 2)” value in experiment [3] is “obviously reduce”. Further, the “Relative expression of α-SMA (α-SMA/β-actin, %)” value in experiment [3] (1 μM, 48 hours, negative control = 100%) turned out to be 41.19%. In addition, in experiment [4], the “Atrophy lesions of pancreatic islets (HE staining)” value is “significantly improve”; the “Inhibition of liver lipoid vacuolar degeneration and lipid inflammation, comparison between compounds” value is “better inhibition effect”; the “Liver lipoid vacuolar degeneration and lipid inflammation (HE staining)” value is reported as “significantly inhibit”; the “Total cholesterol (TC) level in serum” value is “obviously inhibit”. Further, in experiment [4], the “Triglyceride (TG) level in serum” value is “obviously inhibit”. Also, in experiment [4] (vs blank group), the “Glycosylated hemoglobin (HbAlc) level in serum” value is reported as “significantly reduced” and the “Insulin (INS) level in serum” value is “up-regulated”.
